Experimental data as given in patent US10618918B2, “Substituted boronic acids as antimicrobials” (priority 2015, dated 2020).

What was measured:
KP1004 KPC-2 [1] = experiment: Biapenem potentiation (MPC@1), strain KP1004 KPC-2; type: cell-based; details: minimum BLI concentration inhibiting growth with biapenem 1 μg/mL; tested up to 40 μg/mL
Experimental: (§1) Biapenem was present in the test medium at 1 μg/mL. […] Table 3 summarizes the BLI potency of biapenem potentiation (MPC@1) for two strains overexpressing class A (KPC) and class D (OXA-48) carbapenemases. Biapenem MIC for each strain is also shown.

KP1086 OXA-48 = experiment: Biapenem potentiation (MPC@1), strain KP1086 OXA-48; type: cell-based; details: minimum BLI concentration inhibiting growth with biapenem 1 μg/mL; tested up to 40 μg/mL
Experimental: as §1

AB1053 OXA-72 = experiment: Meropenem potentiation (MPC@8), strain AB1053 OXA-72; type: cell-based, Acinetobacter baumannii; details: minimum BLI concentration inhibiting growth with meropenem 8 μg/mL; tested up to 20 μg/mL
AB1054 OXA-23 = experiment: Meropenem potentiation (MPC@8), strain AB1054 OXA-23; type: cell-based, Acinetobacter baumannii; details: minimum BLI concentration inhibiting growth with meropenem 8 μg/mL; tested up to 20 μg/mL
[2] = target: T1, purified class A, C and D enzymes (β-lactamases) (Acinetobacter baumannii, UniProt Q9L4P2); experiment: biochemical; type: biochemical; details: purified OXA-23; nitrocefin (NCF) as reporter substrate
T1 construct: rows headed: Ki (OXA-23, NCF), uM; other: purified OXA-23; nitrocefin (NCF) as reporter substrate

[3] = target: purified class A, C and D enzymes (β-lactamases) (Enterobacter cloacae, UniProt P05364); experiment: biochemical; type: biochemical
[4] = target: purified class A, C and D enzymes (β-lactamases) (Escherichia coli, UniProt Q9L5C7); experiment: biochemical; type: biochemical; details: purified CTX-M-14; nitrocefin (NCF) as reporter substrate
[5] = target: purified class A, C and D enzymes (β-lactamases) (Klebsiella pneumoniae, UniProt Q6XEC0); experiment: biochemical; type: biochemical; details: purified OXA-48; nitrocefin (NCF) as reporter substrate
[6] = target: purified class A, C and D enzymes (β-lactamases) (Klebsiella pneumoniae, UniProt Q9F663); experiment: biochemical; type: biochemical; details: purified KPC-2; nitrocefin (NCF) as reporter substrate
[7] = target: T2, purified class A, C and D enzymes (β-lactamases) (Pseudomonas aeruginosa, UniProt P24735); experiment: biochemical; type: biochemical
T2 construct: rows headed: Ki (Pa-AmpC, NCF), uM; other: purified Pa-AmpC; nitrocefin (NCF) as reporter substrate

ECL1002 = experiment: Aztreonam potentiation (MPC@4), strain ECL1002; details: minimum BLI concentration inhibiting growth with aztreonam 4 μg/mL; tested up to 40 μg/mL
ec308 SHV-5 = experiment: Aztreonam potentiation (MPC@4), strain ec308 SHV-5; details: minimum BLI concentration inhibiting growth with aztreonam 4 μg/mL; tested up to 40 μg/mL
ec302 TEM-10 = experiment: Aztreonam potentiation (MPC@4), strain ec302 TEM-10; details: minimum BLI concentration inhibiting growth with aztreonam 4 μg/mL; tested up to 40 μg/mL
KP1004 KPC-2 [8] = experiment: Aztreonam potentiation (MPC@4), strain KP1004 KPC-2; details: minimum BLI concentration inhibiting growth with aztreonam 4 μg/mL; tested up to 40 μg/mL
EC1010 CMY-6 = experiment: Aztreonam potentiation (MPC@4), strain EC1010 CMY-6; details: minimum BLI concentration inhibiting growth with aztreonam 4 μg/mL; tested up to 40 μg/mL
KP1010 SHV-12 = experiment: Aztreonam potentiation (MPC@4), strain KP1010 SHV-12; details: minimum BLI concentration inhibiting growth with aztreonam 4 μg/mL; tested up to 40 μg/mL
KP1009 CTX-M-15 = experiment: Aztreonam potentiation (MPC@4), strain KP1009 CTX-M-15; details: minimum BLI concentration inhibiting growth with aztreonam 4 μg/mL; tested up to 40 μg/mL
KP1005 CTX-M-14 = experiment: Tigemonam potentiation (MPC@4), strain KP1005 CTX-M-14; details: minimum BLI concentration inhibiting growth with tigemonam 4 μg/mL; tested up to 40 μg/mL

T1 sequence (Q9L4P2 whole entry): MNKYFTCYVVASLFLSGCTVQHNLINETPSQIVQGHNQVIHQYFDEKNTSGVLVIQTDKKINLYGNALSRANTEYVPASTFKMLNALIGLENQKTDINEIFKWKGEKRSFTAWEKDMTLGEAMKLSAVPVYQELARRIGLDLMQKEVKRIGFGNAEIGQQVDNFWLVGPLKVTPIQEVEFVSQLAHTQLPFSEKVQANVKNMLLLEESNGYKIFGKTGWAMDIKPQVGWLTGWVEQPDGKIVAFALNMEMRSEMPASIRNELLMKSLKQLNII
Sequence of purified class A, C and D enzymes (β-lactamases) (Escherichia coli, UniProt Q9L5C7) (Q9L5C7 entry or part of it): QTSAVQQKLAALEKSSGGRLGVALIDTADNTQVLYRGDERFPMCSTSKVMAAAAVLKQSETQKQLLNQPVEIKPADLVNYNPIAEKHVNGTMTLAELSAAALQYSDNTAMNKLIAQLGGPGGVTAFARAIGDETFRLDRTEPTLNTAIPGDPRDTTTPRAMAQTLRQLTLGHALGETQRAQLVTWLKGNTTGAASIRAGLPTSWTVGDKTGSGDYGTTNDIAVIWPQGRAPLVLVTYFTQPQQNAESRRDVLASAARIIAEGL
T2 sequence (P24735 whole entry): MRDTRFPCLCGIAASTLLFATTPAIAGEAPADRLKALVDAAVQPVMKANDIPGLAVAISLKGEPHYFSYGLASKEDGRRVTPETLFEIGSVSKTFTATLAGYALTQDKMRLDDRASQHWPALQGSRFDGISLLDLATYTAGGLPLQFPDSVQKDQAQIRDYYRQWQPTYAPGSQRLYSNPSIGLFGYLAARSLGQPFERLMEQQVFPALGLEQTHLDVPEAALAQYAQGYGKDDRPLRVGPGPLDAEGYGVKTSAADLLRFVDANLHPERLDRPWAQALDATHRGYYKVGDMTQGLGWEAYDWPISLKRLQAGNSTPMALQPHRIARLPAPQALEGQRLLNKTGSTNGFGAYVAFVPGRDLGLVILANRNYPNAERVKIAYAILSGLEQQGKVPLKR
Sequence of purified class A, C and D enzymes (β-lactamases) (Enterobacter cloacae, UniProt P05364) (P05364 21-381): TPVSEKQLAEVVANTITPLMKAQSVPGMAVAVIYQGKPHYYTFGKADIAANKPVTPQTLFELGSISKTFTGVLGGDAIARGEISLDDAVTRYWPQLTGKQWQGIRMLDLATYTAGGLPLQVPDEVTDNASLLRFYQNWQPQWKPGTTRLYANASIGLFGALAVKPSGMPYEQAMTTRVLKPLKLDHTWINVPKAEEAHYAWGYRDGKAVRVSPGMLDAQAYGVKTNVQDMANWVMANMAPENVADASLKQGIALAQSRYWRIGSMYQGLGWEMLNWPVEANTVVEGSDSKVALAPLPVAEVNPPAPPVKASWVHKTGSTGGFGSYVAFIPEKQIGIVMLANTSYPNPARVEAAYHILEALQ

Row | SMILES | BPM MPC1 KP1004 KPC-2 (KP1004 KPC-2 [1]) | BPM MPC1 OXA-48 KP1086 (KP1086 OXA-48) | MPM MPC8 AB1053 OXA-72 (AB1053 OXA-72) | MPM MPC8 AB1054 OXA-23 (AB1054 OXA-23) | Ki [2] [nM] | Ki (P99, NCF), uM [3] | Ki (CTX-M-14, NCF), uM [4] | Ki (OXA-48, NCF), uM [5] | Ki (KPC-2, NCF), uM [6] | Ki [7] [nM] | AZT MPC4 ECL1002 (ECL1002) | AZT MPC4 SHV-5 ec308 (ec308 SHV-5) | AZT MPC4 TEM-10 ec302 (ec302 TEM-10) | AZT MPC4 KPC-2 KP1004 (KP1004 KPC-2 [8]) | AZT MPC4 CMY-6 EC1010 (EC1010 CMY-6) | AZT MPC4 SHV-12 KP1010 (KP1010 SHV-12) | AZT MPC4 CTX-M-15 KP1009 (KP1009 CTX-M-15) | TIG MPC4 CTX-M-14 KP1005 (KP1005 CTX-M-14)
1 | O=C(O)c1c(-n2ccnn2)ccc2c1O[B-](O)(O)CC2 [Compound 13, Disodium; 4,4-dihydroxy-8-(triazol-1-yl)-5-oxa-4-boranuidabicyclo[4.4.0]deca-1(6),7,9-triene-7-carboxylate] | X (X = MPC@1 ≤ 5 μg/mL) | X (X = MPC@1 ≤ 5 μg/mL) | X (X = MPC@1 ≤ 5 μg/mL) | X (X = MPC@1 ≤ 5 μg/mL) | < 100 | X (key: X = Ki ≤ 0.1 μM; Y = 0.1 μM < Ki ≤ 1 μM; Z = Ki > 1 μM) | X (X = Ki ≤ 0.1 μM) | X (X = Ki ≤ 0.1 μM) | X (X = Ki ≤ 0.1 μM) | < 100 | X (X = MPC@4 ≤ 5 μg/mL) | X (X = MPC@4 ≤ 5 μg/mL) | X (X = MPC@4 ≤ 5 μg/mL) | X (X = MPC@4 ≤ 5 μg/mL) | X (X = MPC@4 ≤ 5 μg/mL) | X (X = MPC@4 ≤ 5 μg/mL) | X (X = MPC@4 ≤ 5 μg/mL) | X (X = MPC@4 ≤ 5 μg/mL)
2 | O=C([O-])c1c(O)ccc2c1O[B-](O)(O)CC2.[Na+].[Na+] [Compound 42, Disodium; 4,4,8-trihydroxy-5-oxa-4-boranuidabicyclo[4.4.0]deca-1(6),7,9-triene-7-carboxylate] | X (X = MPC@1 ≤ 5 μg/mL) | X (X = MPC@1 ≤ 5 μg/mL) | Z (Z = MPC@1 > 20 μg/mL) | Z (Z = MPC@1 > 20 μg/mL) | 100 to 1000 | Y (key: X = Ki ≤ 0.1 μM; Y = 0.1 μM < Ki ≤ 1 μM; Z = Ki > 1 μM) | X (X = Ki ≤ 0.1 μM) | X (X = Ki ≤ 0.1 μM) | X (X = Ki ≤ 0.1 μM) | 100 to 1000 | Z (Z = MPC@4 > 20 μg/mL) | Y (Y = 5 μg/mL < MPC@4 ≤ 20 μg/mL) | Y (Y = 5 μg/mL < MPC@4 ≤ 20 μg/mL) | Y (Y = 5 μg/mL < MPC@4 ≤ 20 μg/mL) | Z (Z = MPC@4 > 20 μg/mL) | X (X = MPC@4 ≤ 5 μg/mL) | Z (Z = MPC@4 > 20 μg/mL) | Z (Z = MPC@4 > 20 μg/mL)
3 | CCOc1ccc2c(c1C(=O)[O-])O[B-](O)(O)CC2.[Na+].[Na+] [Compound 57, Disodium; 8-ethoxy-4,4-dihydroxy-5-oxa-4-boranuidabicyclo[4.4.0]deca-1(6),7,9-triene-7-carboxylate] | X (X = MPC@1 ≤ 5 μg/mL) | X (X = MPC@1 ≤ 5 μg/mL) | X (X = MPC@1 ≤ 5 μg/mL) | X (X = MPC@1 ≤ 5 μg/mL) | < 100 | X (key: X = Ki ≤ 0.1 μM; Y = 0.1 μM < Ki ≤ 1 μM; Z = Ki > 1 μM) | X (X = Ki ≤ 0.1 μM) | X (X = Ki ≤ 0.1 μM) | X (X = Ki ≤ 0.1 μM) | < 100 | X (X = MPC@4 ≤ 5 μg/mL) | X (X = MPC@4 ≤ 5 μg/mL) | X (X = MPC@4 ≤ 5 μg/mL) | X (X = MPC@4 ≤ 5 μg/mL) | X (X = MPC@4 ≤ 5 μg/mL) | X (X = MPC@4 ≤ 5 μg/mL) | X (X = MPC@4 ≤ 5 μg/mL) | Y (Y = 5 μg/mL < MPC@4 ≤ 20 μg/mL)
